Assay results: patent US10124004B2, “Pyrido[3,4-d]pyrimidine derivative and pharmaceutically acceptable salt thereof” (Teijin Pharma Limited, priority 2015, dated 2018)

How the values were obtained:
[1] = target: T1, CDK4/cyclin D3 (Homo sapiens, UniProt P11802); experiment: Human CDK4/cyclin D3 inhibitory activity (QS S Assist CDK4/Cyclin D3_FP Kit, IMAP fluorescence polarization); format: biochemical; conditions: 50% inhibitory concentration against CDK4/cyclin D3, given as class symbol
T1 construct: purchased Carna Biosciences, Inc. QS S Assist CDK4/Cyclin D3_FP Kit
T1 sequence (P11802 whole entry): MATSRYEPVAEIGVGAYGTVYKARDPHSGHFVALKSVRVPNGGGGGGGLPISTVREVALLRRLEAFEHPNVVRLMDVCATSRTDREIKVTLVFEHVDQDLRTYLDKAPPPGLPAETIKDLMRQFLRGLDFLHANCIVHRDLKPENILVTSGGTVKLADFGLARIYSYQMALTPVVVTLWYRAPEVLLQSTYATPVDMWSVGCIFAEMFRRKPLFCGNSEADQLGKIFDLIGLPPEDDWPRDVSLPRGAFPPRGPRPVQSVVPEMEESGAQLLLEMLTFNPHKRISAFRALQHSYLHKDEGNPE
T1 sequence (P30281 whole entry partner): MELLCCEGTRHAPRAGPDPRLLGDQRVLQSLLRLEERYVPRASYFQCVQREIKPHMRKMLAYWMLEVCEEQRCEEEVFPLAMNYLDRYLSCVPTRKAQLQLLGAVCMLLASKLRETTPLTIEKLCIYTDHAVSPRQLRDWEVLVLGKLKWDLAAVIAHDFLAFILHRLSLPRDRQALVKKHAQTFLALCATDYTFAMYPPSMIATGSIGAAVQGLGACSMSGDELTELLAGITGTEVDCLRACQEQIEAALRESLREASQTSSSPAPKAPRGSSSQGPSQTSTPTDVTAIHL
Method in brief: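 IMAP fluorescence polarization kit: CDK4/cyclin D3 at 12.5-25 ng/well with kit ATP/substrate/metal mix in 20 mM HEPES pH 7.4, 0.01% Tween20, 2 mM DTT, 45 min at room temperature. FP read at 485/535 nm after 30 min binding; IC50 from dose-response fit of percent inhibition versus enzyme and no-enzyme controls.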

[2] = target: T2, CDK2/cyclin A2 (Homo sapiens, UniProt P24941); experiment: Human CDK2/cyclin A2 inhibitory activity (QS S Assist CDK2/Cyclin A2_FP Kit, IMAP fluorescence polarization); format: biochemical; conditions: 50% inhibitory concentration against CDK2/cyclin A2, given as class symbol
T2 construct: purchased Carna Biosciences, Inc. QS S Assist CDK2/Cyclin A2_FP Kit
Method in brief: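 Kinase activity read as fluorescence polarization (485/535 nm) after phosphorylated fluorescent substrate binds IMAP reagent (30 min, RT, dark). Enzyme (2.5 ng/well) reacted 60 min at RT with ATP/substrate/metal in HEPES pH 7.4 buffer with Tween 20 and DTT; no-enzyme wells define 0% activity; IC50 by curve fit.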

| Structure (SMILES) | IC50 [1] [nM] | IC50 [2] [nM] |
| --- | --- | --- |
| CC(C)Nc1nc([C@@H](C)O)cc2cnc(Nc3ccc(N4CCN(C(C)C)CCC4=O)cn3)nc12 [Compound 631] | < 10 | 10 to 100 |
| CC(C)CN1CCC(=O)N(c2ccc(Nc3ncc4cc([C@@H](C)O)nc(NC(C)C)c4n3)nc2)CC1 [Compound 632] | < 10 | ≥ 100 |
| CC(C)Nc1nc([C@@H](C)O)cc2cnc(Nc3ccc(CN4CCN(C(C)C)CC4)cn3)nc12 [Compound 633] | < 10 | ≥ 100 |
| CNCCOc1ccc(Nc2ncc3cc([C@@H](C)O)nc(NC4CCC(C)(C)OC4)c3n2)nc1 (stereo partly drawn) [Compound 634] | < 10 | ≥ 100 |
| CNCCOc1ccc(Nc2ncc3cc([C@@H](C)O)nc(N[C@H]4CCCOC4)c3n2)nc1 [Compound 635] | < 10 | ≥ 100 |
| CC(O)CN1CCN(c2ccc(Nc3ncc4cc([C@@H](C)O)nc(NC(C)C)c4n3)nc2)C(=O)C1 (stereo partly drawn) [Compound 636] | < 10 | ≥ 100 |
| CC(O)CN1CCN(c2ccc(Nc3ncc4cc([C@@H](C)O)nc(NC(C)C)c4n3)nn2)CC1 (stereo partly drawn) [Compound 637] | < 10 | ≥ 100 |
| CC(O)CN1CCN(Cc2ccc(Nc3ncc4cc([C@@H](C)O)nc(NC(C)C)c4n3)nc2)CC1 (stereo partly drawn) [Compound 638] | < 10 | ≥ 100 |
| C[C@@H](O)c1cc2cnc(Nc3ccc(N4CCN(C)CC4)nn3)nc2c(NC2CCC(C)(C)OC2)n1 (stereo partly drawn) [Compound 639] | < 10 | ≥ 100 |
| C[C@@H](O)c1cc2cnc(Nc3ccc(N4CCN(C)CC4)nn3)nc2c(N[C@H]2CCCOC2)n1 [Compound 640] | < 10 | ≥ 100 |
| COC1CCC(Nc2nc([C@@H](C)O)cc3cnc(Nc4ccc(N5CCN(C)CC5)nn4)nc23)CC1 (stereo partly drawn) [Compound 641] | < 10 | ≥ 100 |
| CC(C)Nc1nc([C@@H](C)O)cc2cnc(Nc3ccc(N4CCN5CCCC5C4=O)cn3)nc12 (stereo partly drawn) [Compound 642] | < 10 | ≥ 100 |
| CC(C)Nc1nc([C@@H](C)O)cc2cnc(Nc3ccc(N4CCN(CC(C)(C)O)CCC4=O)cn3)nc12 [Compound 643] | < 10 | ≥ 100 |
| CC(C)Nc1nc([C@@H](C)O)cc2cnc(Nc3ccc(CN4CCN(C(C)CO)CC4)cn3)nc12 (stereo partly drawn) [Compound 644] | < 10 | ≥ 100 |
| CC(O)c1cc2cnc(Nc3ccc(OC4CCNCC4F)cn3)nc2c(NC2CCCOC2)n1 (stereo not drawn) [Compound 645] | < 10 | ≥ 100 |
| COC1CCC(Nc2nc(C(C)O)cc3cnc(Nc4ccc(OC5CCNCC5F)cn4)nc23)CC1 (stereo not drawn) [Compound 646] | < 10 | ≥ 100 |
| CC(O)c1cc2cnc(Nc3ccc(OC4CCNCC4F)cn3)nc2c(NC2CCC(C)(C)OC2)n1 (stereo not drawn) [Compound 647] | < 10 | ≥ 100 |
| CC(C)Nc1nc([C@@H](C)O)cc2cnc(Nc3ccc(N4CCC5(CC4)CNC(=O)C5)nn3)nc12 [Compound 648] | < 10 | ≥ 100 |
| C[C@@H](O)c1cc2cnc(Nc3ccc(N4CCNCC4=O)cn3)nc2c(NC2CCC(C)(C)OC2)n1 (stereo partly drawn) [Compound 649] | < 10 | ≥ 100 |
| COC1CCC(Nc2nc([C@@H](C)O)cc3cnc(Nc4ccc(N5CCNCC5=O)cn4)nc23)CC1 (stereo partly drawn) [Compound 650] | < 10 | ≥ 100 |
| CC(C)Nc1nc([C@@H](C)O)cc2cnc(Nc3ccc4c(n3)CCN(C(=O)CO)C4)nc12 [Compound 651] | < 10 | ≥ 100 |
| C[C@@H](O)c1cc2cnc(Nc3ccc4c(n3)CCN(C(=O)CO)C4)nc2c(N[C@H]2CC[C@H](C)CC2)n1 [Compound 652] | < 10 | ≥ 100 |
| C[C@@H](O)c1cc2cnc(Nc3ccc4c(n3)CCN(C(=O)CO)C4)nc2c(N[C@H]2CC[C@@H](C)CC2)n1 [Compound 653] | < 10 | ≥ 100 |
| C[C@@H](O)c1cc2cnc(Nc3ccc4c(n3)CCN(C(=O)CO)C4)nc2c(NC2CCC(C)(C)CC2)n1 [Compound 654] | < 10 | ≥ 100 |
| CC(C)Nc1nc([C@@H](C)O)cc2cnc(Nc3cc4c(cn3)CN(C(=O)CO)CC4)nc12 [Compound 655] | 10 to 100 | ≥ 100 |
| CC(C)Nc1nc([C@@H](C)O)cc2cnc(Nc3ccc4c(n3)CN(C(=O)CO)C4)nc12 [Compound 656] | < 10 | ≥ 100 |
| CC(C)Nc1nc([C@@H](C)O)cc2cnc(Nc3ccc(N4CCN(C(C)(C)C(=O)O)CC4)nn3)nc12 [Compound 657] | < 10 | ≥ 100 |
